Marks after values point to notes of the source that are not given here.
Test: Determination of bio-accumulation: urinary clearance pharmacokinetic study in rats
Conditions: for Compound-related Effects: 73 micro Moles per kg oral gavage, clinical signs and gross necropsy 96 hours post-dose; for T½: renal elimination half-life, urine by fluorine NMR, exponential curve fitting
[1] = recovery of administered amount in urine after 96 h, 73 micro Moles per kg, oral gavage
[2] = 73 micro Moles per kg, oral gavage
[3] = no parent compound in urine, based on elimination of the major metabolite C3F7-O-CHFCOO-, 73 micro Moles per kg, oral gavage

SMILES: N.O=C(O)C(F)(F)OC(F)(F)C(F)(F)C(F)(F)OC(F)(F)F [Compound 1, CF3—O—(CF2)3—O—CF2—COONH4]
- % Recovery (96 h) [1]: 73%

SMILES: N.O=C(O)C(F)(F)C(F)(F)C(F)(F)C(F)(F)C(F)(F)C(F)(F)C(F)(F)F [Compound C-1, C7F15COONH4, reference compound]
- Compound-related Effects: Hepatomegaly
- % Recovery (96 h) [1]: 6%
- T½ [2]: ~550 h

SMILES: N.O=C(O)C(F)(F)C(F)(F)OC(F)(F)C(F)(F)C(F)(F)F [Compound 8, C3F7—O—CF2—CF2—COONH4]
- % Recovery (96 h) [1]: 82%
- T½ [2]: 12 h

SMILES: N.O=C(O)COC(F)(F)C(F)OC(F)(F)C(F)(F)C(F)(F)F (stereo not shown) [Compound 16, C3F7—O—CFH—CF2—O—CH2—COONH4]
- % Recovery (96 h) [3]: 65* %
- T½ (h) [3]: 13* h

SMILES: N.O=C(O)C(F)(F)C(F)OC(F)(F)C(F)(F)C(F)(F)OC(F)(F)F (stereo not shown) [Compound 11, CF3—O—CF2—CF2—CF2—O—CHF—CF2—COONH4]
- % Recovery (96 h) [1]: 84%
- T½ [2]: 12 h

SMILES: N.O=C(O)C(F)(F)C(F)(F)OC(F)(F)F [Compound 6, CF3—O—CF2—CF2—COONH4]
- % Recovery (96 h) [1]: 100%
- T½ [2]: 11 h

SMILES: N.O=C(O)C(F)(F)C(F)OC(F)(F)C(F)(F)C(F)(F)F (stereo not shown) [Compound 13, C3F7—O—CFH—CF2COONH4]
- % Recovery (96 h) [1]: 94%
- T½ [2]: 11 h

SMILES: N.O=C(O)C(F)(F)OC(F)(F)OC(F)(F)OC(F)(F)F [Compound 3, CF3—OCF2—OCF2—OCF2—COONH4]
- % Recovery (96 h) [1]: 100%
- T½ [2]: 12 h

SMILES: N.O=C(O)C(F)(F)OC(F)(F)OC(F)(F)F [Compound 2, CF3—OCF2—O—CF2—COONH4]
- % Recovery (96 h) [1]: 96%
- T½ [2]: 12 h

SMILES: N.O=C(O)C(F)OC(F)(F)C(F)(F)C(F)(F)OC(F)(F)F (stereo not shown) [Compound 12, CF3—O—CF2—CF2—CF2—O—CHF—COONH4]
- % Recovery (96 h) [1]: 95%
- T½ [2]: 11 h

SMILES: N.O=C(O)C(F)(F)C(F)(F)OC(F)(F)C(F)(F)F [Compound 7, C2F5—O—CF2—CF2—COONH4]
- % Recovery (96 h) [1]: 100%
- T½ [2]: 10 h

SMILES: N.O=C(O)C(F)(F)C(F)(F)OC(F)(F)C(F)(F)C(F)(F)C(F)(F)F [Compound 9, C4F9—O—CF2—CF2—COONH4]
- Compound-related Effects: Hepatomegaly
- % Recovery (96 h) [1]: 42%
- T½ [2]: 31 h

SMILES: N.O=C(O)C(F)(F)C(F)(F)C(F)(F)C(F)(F)C(F)(F)OC(F)C(F)(F)F (stereo not shown) [Compound 14, CF3—CFH—O—(CF2)5—COONH4]
- Compound-related Effects: Hepatomegaly
- % Recovery (96 h) [1]: 32%
- T½ [2]: 24 h

SMILES: N.O=C(O)C(F)(F)OC(F)(F)C(F)(OC(F)(F)C(F)(F)C(F)(F)F)C(F)(F)F (stereo not shown) [Compound C-3, CF3CF2CF2OCF(CF3)CF2OCF2COONH4, reference compound]
- Compound-related Effects: Hepatomegaly
- % Recovery (96 h) [1]: 5%
- T½ [2]: 95 h

SMILES: N.O=C(O)C(F)(F)C(F)(F)C(F)(F)OC(F)C(F)(F)F (stereo not shown) [Compound 15, CF3—CFH—O—(CF2)3—COONH4]
- % Recovery (96 h) [1]: 95%
- T½ [2]: 8 h

SMILES: N.O=C(O)C(F)(F)OC(F)(F)C(F)(F)C(F)(F)OC(F)(F)F [Compound 4, CF3—(OCF2)3—OCF2—COONH4]
- % Recovery (96 h) [1]: 50%
